Legend:
TAF1L BD2 = target: T1, TAF1L BD2 (Homo sapiens, UniProt Q8IZX4); test: Bromodomain Binding Assay; conditions: 10 μM Compound 074, read-out: Bromodomain Binding % of Control
T1 construct: made in house; host or cells: T7 phage grown in E. coli host derived from BL21

BRDT BD1 = BRDT BD1 (Homo sapiens, UniProt Q58F21); test: Bromodomain Binding Assay; conditions: 10 μM Compound 074, read-out: Bromodomain Binding % of Control
ATAD2 = ATAD2 (Homo sapiens, UniProt Q6PL18); test: Bromodomain Binding Assay; conditions: 10 μM Compound 074, read-out: Bromodomain Binding % of Control
BRDT BD2 = BRDT BD2 (Homo sapiens, UniProt Q58F21); test: Bromodomain Binding Assay; conditions: 10 μM Compound 074, read-out: Bromodomain Binding % of Control
BRD1 = BRD1 (Homo sapiens, UniProt O95696); test: Bromodomain Binding Assay; conditions: 10 μM Compound 074, read-out: Bromodomain Binding % of Control
CREBBP = CREBBP (Homo sapiens, UniProt Q92793); test: Bromodomain Binding Assay; conditions: 10 μM Compound 074, read-out: Bromodomain Binding % of Control
KAT2B = target: T2, KAT2B (Homo sapiens, UniProt Q92831); test: Bromodomain Binding Assay; conditions: 10 μM Compound 074, read-out: Bromodomain Binding % of Control
T2 construct: made in house; host or cells: T7 phage grown in E. coli host derived from BL21

HSP90α = HSP90α (Homo sapiens, UniProt P07900); test: HSP90α Binding Fluorescent Polarization (FP) Assay; conditions: as shown in Table 1
Experimental: HSP90α Binding Fluorescent Polarization (FP) Assay
A master mix was prepared with assay buffer, BSA and FITC-geldanamycin. In a 96-well plate, a serial 3-fold dilution of each compound was prepared ranging from 40 μM down until 2.0 nM. Also in a 96-well plate, recombinant HSP90α protein was diluted to 28 μg/ml. Then, in a 384-well plate, 10 μl of master mix and 5 μl of compound dilution were added per well to duplicate wells and mixed by brief shaking. Then 5 μl of diluted HSP90α protein was added per well, mixed by brief shaking, incubated at 25° C. for 30, 60 and 120 min and fluorescence was measured on an En Vision Plate Reader. Background-subtracted mP values were calculated from En Vision raw data and a four-parameter “log[inhibitor] vs. response” curve was fitted using GraphPad Prism 7.0.

BRPF1 = BRPF1 (Homo sapiens, UniProt P55201); test: Bromodomain Binding Assay; conditions: 10 μM Compound 074, read-out: Bromodomain Binding % of Control
PBRM1 BD2 = PBRM1 BD2 (Homo sapiens, UniProt Q86U86); test: Bromodomain Binding Assay; conditions: 10 μM Compound 074, read-out: Bromodomain Binding % of Control
[1] = test system: MV4-11 acute myeloid leukemia xenograft; test: MV4-11 AML xenograft model in mice; conditions: for tumor growth inhibition (FIG. 3a): after 3 weeks of dosing
Experimental: MV4-11 cells were plated in a 96-well tissue culture plate at a density of 4,500 cells/90 μL/well and incubated at 37° C./5% CO2 for 24 hr. Cells were then treated with compounds at various concentrations (a 10-point, 3-fold serial dilution series starting at 20 μM) with a final concentration of 0.5% DMSO/well and then incubated in 37° C./5% CO2 for 72 hr. 10 μL the cell proliferation reagent CCK-8 (WST-8) was added into each well and incubated at 37° C./5% CO2 for 3-4 hr and the absorbance at 450 nm measured with an En Vision Plate Reader.
MV4-11 acute myeloid leukemia and SU-DHL-4 diffuse large B-cell lymphoma (ATCC, #CRL-2957) cells were cultured in medium supplemented with 10% fetal bovine serum at 37° C./5% CO2. 5×10^6 MV-4-11 or 1×10^7 SU-DHL-4 cells were collected and re-suspended in 0.1 mL of serum-free media with Matrigel (1:1 v/v) per mouse for subcutaneous inoculation in isoflurane anesthetized male BALB/c nude or C.B-17 scid mice, respectively (treated in accordance with AAALAC animal welfare guidelines). When the average tumor volumes reached 100-200 mm^3, tumor volume outliers were removed and the remaining animals randomly divided into groups of 6-8 with similar average tumor volumes in each group. […] The appearance and behavior of each mouse was observed and recorded daily. Body weights and tumor volumes were measured and recorded every 2-4 days and the results were expressed as group means±SEM. Pairwise statistical comparisons between groups were performed by one-way ANOVA, and p<0.05 was considered statistically significant.

BRD3 BD2 = BRD3 BD2 (Homo sapiens, UniProt Q15059); test: Bromodomain Binding Assay; conditions: 10 μM Compound 074, read-out: Bromodomain Binding % of Control
BRD3 BD1 = BRD3 BD1 (Homo sapiens, UniProt Q15059); test: Bromodomain Binding Assay; conditions: 10 μM Compound 074, read-out: Bromodomain Binding % of Control
BRD4 BD1 = BRD4 BD1 (Homo sapiens, UniProt O60885); test: Bromodomain Binding Assay; conditions: 10 μM Compound 074, read-out: Bromodomain Binding % of Control
BAZ2B = BAZ2B (Homo sapiens, UniProt Q9UIF8); test: Bromodomain Binding Assay; conditions: 10 μM Compound 074, read-out: Bromodomain Binding % of Control
TRIM24 = target: T3, TRIM24 (Homo sapiens, UniProt O15164); test: Bromodomain Binding Assay; conditions: 10 μM Compound 074, read-out: Bromodomain Binding % of Control
T3 construct: made in house; host or cells: T7 phage grown in E. coli host derived from BL21

BRD9 = BRD9 (Homo sapiens, UniProt Q9H8M2); test: Bromodomain Binding Assay; conditions: 10 μM Compound 074, read-out: Bromodomain Binding % of Control
BRD2 BD2 = BRD2 BD2 (Homo sapiens, UniProt P25440); test: Bromodomain Binding Assay; conditions: 10 μM Compound 074, read-out: Bromodomain Binding % of Control
TAF1 BD2 = target: T4, TAF1 BD2 (Homo sapiens, UniProt P21675); test: Bromodomain Binding Assay; conditions: 10 μM Compound 074, read-out: Bromodomain Binding % of Control
T4 construct: made in house; host or cells: T7 phage grown in E. coli host derived from BL21

BPTF = BPTF (Homo sapiens, UniProt Q12830); test: Bromodomain Binding Assay; conditions: 10 μM Compound 074, read-out: Bromodomain Binding % of Control
BRD4 BD2 = BRD4 BD2 (Homo sapiens, UniProt O60885); test: Bromodomain Binding Assay; conditions: 10 μM Compound 074, read-out: Bromodomain Binding % of Control
BRPF3 = BRPF3 (Homo sapiens, UniProt Q9ULD4); test: Bromodomain Binding Assay; conditions: 10 μM Compound 074, read-out: Bromodomain Binding % of Control
EP300 = EP300 (Homo sapiens, UniProt Q09472); test: Bromodomain Binding Assay; conditions: 10 μM Compound 074, read-out: Bromodomain Binding % of Control
CECR2 = CECR2 (Homo sapiens, UniProt Q9BXF3); test: Bromodomain Binding Assay; conditions: 10 μM Compound 074, read-out: Bromodomain Binding % of Control
KAT2A = KAT2A (Homo sapiens, UniProt Q92830); test: Bromodomain Binding Assay; conditions: 10 μM Compound 074, read-out: Bromodomain Binding % of Control
KAT2A, sequence (Q92830 728-832 limits assumed): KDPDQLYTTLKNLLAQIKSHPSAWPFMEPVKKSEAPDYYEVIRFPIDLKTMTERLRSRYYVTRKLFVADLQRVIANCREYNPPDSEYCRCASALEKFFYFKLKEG

T3 sequence (O15164 899-1004 limits assumed): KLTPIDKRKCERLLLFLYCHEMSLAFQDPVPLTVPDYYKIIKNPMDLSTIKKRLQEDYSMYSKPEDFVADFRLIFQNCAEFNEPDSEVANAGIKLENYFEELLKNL
BAZ2B, sequence (Q9UIF8 2060-2164 limits assumed): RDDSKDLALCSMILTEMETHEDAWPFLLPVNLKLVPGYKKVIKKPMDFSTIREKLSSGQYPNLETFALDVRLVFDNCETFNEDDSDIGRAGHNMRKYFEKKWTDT
ATAD2, sequence (Q6PL18 980-1092 limits assumed): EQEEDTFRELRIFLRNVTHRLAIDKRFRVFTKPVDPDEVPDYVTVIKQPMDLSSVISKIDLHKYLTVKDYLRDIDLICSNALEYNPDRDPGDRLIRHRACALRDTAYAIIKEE
EP300, sequence (Q09472 1049-1156 limits assumed): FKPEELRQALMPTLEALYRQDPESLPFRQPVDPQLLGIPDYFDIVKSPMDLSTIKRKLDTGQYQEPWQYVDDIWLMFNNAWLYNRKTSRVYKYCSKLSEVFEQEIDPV
BRPF1, sequence (P55201 628-732 limits assumed): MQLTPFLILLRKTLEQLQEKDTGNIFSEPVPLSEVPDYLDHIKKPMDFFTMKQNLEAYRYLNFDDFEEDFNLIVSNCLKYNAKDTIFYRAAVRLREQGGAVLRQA
CECR2, sequence (Q9BXF3 434-538 limits assumed): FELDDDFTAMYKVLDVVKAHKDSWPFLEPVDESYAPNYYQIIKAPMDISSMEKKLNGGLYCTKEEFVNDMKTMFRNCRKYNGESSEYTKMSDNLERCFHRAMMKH
BRD9, sequence (Q9H8M2 136-240 limits assumed): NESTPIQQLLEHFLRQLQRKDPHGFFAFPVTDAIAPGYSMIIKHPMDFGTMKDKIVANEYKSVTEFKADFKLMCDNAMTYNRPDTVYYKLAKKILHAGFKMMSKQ
T2 sequence (Q92831 723-827 limits assumed): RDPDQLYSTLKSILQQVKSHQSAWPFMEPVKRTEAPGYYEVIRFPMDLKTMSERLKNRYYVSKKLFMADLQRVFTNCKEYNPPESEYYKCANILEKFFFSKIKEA
BRD3 BD2, sequence (Q15059 306-415 limits assumed): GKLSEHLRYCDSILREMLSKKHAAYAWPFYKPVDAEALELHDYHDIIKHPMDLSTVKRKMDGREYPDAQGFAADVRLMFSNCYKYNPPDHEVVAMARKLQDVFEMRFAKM
BRD3 BD1, sequence (Q15059 34-140 limits assumed): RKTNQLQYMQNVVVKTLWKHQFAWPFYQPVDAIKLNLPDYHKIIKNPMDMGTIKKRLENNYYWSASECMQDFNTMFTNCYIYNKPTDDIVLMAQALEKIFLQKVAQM
T4 sequence (P21675 1519-1628 limits assumed): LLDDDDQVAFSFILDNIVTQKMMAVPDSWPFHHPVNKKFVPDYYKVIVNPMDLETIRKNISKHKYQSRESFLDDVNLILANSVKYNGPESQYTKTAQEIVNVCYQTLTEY
PBRM1 BD2, sequence (Q86U86 177-287 limits assumed): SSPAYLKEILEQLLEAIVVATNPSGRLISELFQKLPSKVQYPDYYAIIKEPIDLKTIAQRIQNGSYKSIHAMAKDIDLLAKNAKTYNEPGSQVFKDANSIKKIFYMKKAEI
BRPF3, sequence (Q9ULD4 589-693 limits assumed): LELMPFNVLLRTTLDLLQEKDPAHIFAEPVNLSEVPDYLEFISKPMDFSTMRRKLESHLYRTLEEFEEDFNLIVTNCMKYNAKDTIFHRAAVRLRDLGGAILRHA
T1 sequence (Q8IZX4 1517-1626 limits assumed): as the sequence (P21675 1519-1628 limits assumed) above, with V46M, M51V, V102I, L107I counted along it
BRD1, sequence (O95696 562-666 limits assumed): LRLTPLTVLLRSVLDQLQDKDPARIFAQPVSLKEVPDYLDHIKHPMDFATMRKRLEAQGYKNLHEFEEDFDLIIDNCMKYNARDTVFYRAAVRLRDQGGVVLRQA
BRD2 BD2, sequence (P25440 344-453 limits assumed): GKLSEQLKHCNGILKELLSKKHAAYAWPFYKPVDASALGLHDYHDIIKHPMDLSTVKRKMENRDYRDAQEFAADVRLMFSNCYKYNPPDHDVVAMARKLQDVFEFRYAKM
CREBBP, sequence (Q92793 1085-1192 limits assumed): as the sequence (Q09472 1049-1156 limits assumed) above, with S47N, I73V, Y93F, S98A counted along it

## Cc1sc2c(c1C)C(c1ccc(Cl)cc1)=N[C@@H](CC(=O)N1CCC(CN3CCN(Cc4ccc(-n5c(O)nnc5-c5cc(C(C)C)c(O)cc5O)cc4)CC3)CC1)c1nnc(C)n1-2.Cl [Compound 74, (S)-2-(4-(4-chlorophenyl)-2,3,9-trimethyl-6H-thieno[3,2-f][1,2,4]triazolo[4,3-a][1,4]diazepin-6-yl)-1-(4-((4-(4-(3-(2,4-dihydroxy-5-isopropylphenyl)-5-hydroxy-4H-1,2,4-triazol-4-yl)benzyl)piperazin-1-yl)methyl)piperidin-1-yl)ethan-1-one hydrochloride]
TAF1L BD2
  remaining activity at 10 µM: > 75%
BRDT BD1
  remaining activity at 10 µM: < 10%
ATAD2
  remaining activity at 10 µM: > 75%
BRDT BD2
  remaining activity at 10 µM: < 10%
BRD1
  remaining activity at 10 µM: > 75%
CREBBP
  remaining activity at 10 µM: > 75%
KAT2B
  remaining activity at 10 µM: > 75%
HSP90α
  potency in binding to HSP90 (in words): moderate potency
BRPF1
  remaining activity at 10 µM: > 75%
PBRM1 BD2
  remaining activity at 10 µM: > 75%
[1]; 50 mg/kg intravenous 1×/week
  animals tumor free at the end of the study: 1 out of 6
  tumor growth inhibition (FIG. 3a): significant tumor growth inhibition
[1]; 100 mg/kg intravenous 1×/week
  animals tumor free at the end of the study: 4 out of 6
  tumor growth inhibition (FIG. 3a): significant tumor growth inhibition
[1]; any group, MV4-11 xenograft
  animal deaths and body weights (FIG. 3b): No animal deaths or significant effects on body weights were observed
BRD3 BD2
  remaining activity at 10 µM: < 10%
BRD3 BD1
  remaining activity at 10 µM: < 10%
BRD4 BD1
  remaining activity at 10 µM: < 10%
BAZ2B
  remaining activity at 10 µM: > 75%
TRIM24
  remaining activity at 10 µM: > 75%
BRD9
  remaining activity at 10 µM: > 75%
BRD2 BD2
  remaining activity at 10 µM: < 10%
TAF1 BD2
  remaining activity at 10 µM: > 75%
BPTF
  remaining activity at 10 µM: > 75%
BRD4 BD2
  remaining activity at 10 µM: < 10%
BRPF3
  remaining activity at 10 µM: > 75%
EP300
  remaining activity at 10 µM: 11 to 75%
CECR2
  remaining activity at 10 µM: > 75%
KAT2A
  remaining activity at 10 µM: > 75%
